Test results taken from patent US20120035247A1, “RNA Interference Mediated Inhibition of Signal Transducer and Activator of Transcription 6 (STAT6) Gene Expression Using Short Interfering Nucleic Acid (siNA)” (Merck Sharp & Dohme Corp., priority 2009, published 2012).
[invAb] = inverted abasic unit; m = 2'-O-methyl; r = 2'-OH (RNA); f = 2'-fluoro

Assays:
[1] = system: STAT6 mRNA; assay: STAT6 siNA screen in mouse NIH 3T3 cells, STAT6 mRNA by quantitative RT-PCR (Taqman); assay type: cell-based; conditions: mouse NIH3T3 cells, 10 nM siNA, 24 hrs, normalized to GAPDH and non-targeting control, n = 2
Outline: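 NIH 3T3 cells, 5000/well, transfected after 24 h with siNA (10 nM final) via RNAiMax and harvested 24 h later. STAT6 mRNA quantified by TaqMan RT-qPCR with GAPDH; knock-down by comparative Ct (2^−ΔΔCt) against non-targeting control siNA.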

[2] = system: STAT6 protein; assay: STAT6 Western Blot after 6-well plate transfection of A549 cells; assay type: cell-based, human; conditions: STAT6 protein band density, 72 h post-transfection, average ±S.D., n = 3
Experimental: A549 cells were plated in 6-well plates at final counts of 70,000 cells/well in 2 ml of complete growth media. Transfection was performed using 2.5 uL of RNAiMax per well. Final concentration of siNAs was 30 nM (screen) and 30, 0.3, and 0.003 nM (dose response study). Protein lysates were harvested 24, 48, and 72 hours post-transfection (screen) and 72 hours post-transfection (dose response study). Protein lysates were prepared using Cell Extraction Buffer (Invitrogen, cat# FNN0011) according to manufacturer's instructions. Protein concentration was measured using a Bradford Quick Start Kit (Bio-Rad, cat#500-0205).
The protein source for the Western Blot experiments were from transfection of A549 cells in a 6 well plate, as described above.
Protein samples were diluted 1:1 in 2× Laemmli buffer with 5% 13-mercapto-ethanol and incubated at 95° C. for 5 minutes. 40-50 ug of protein was loaded in each lane of 10% Tris-HCl gel. One lane was designated for MagicMark Protein Standard (Invitrogen # LC5602). The gel was run at 100V for approximately 2 hours. Protein was transferred to a PVDF membrane at 100V for 60 minutes. Once the transfer was finished, the membrane was blocked in 1% Casein in PBS (BioRad Cat#161-0783) for 1 hour on a plate rocker at room temperature followed by the overnight incubation at 4° C. with mouse monoclonal anti-STAT6 primary antibody (BD Biosciences, cat#611291) diluted 1:500 in 1% Casein. On the next day, the blot was washed 4×5 minutes in PBST solution and incubated for 30 minutes at room temperature with goat anti-mouse secondary antibody (Pierce Biotechnology, cat#3 31430) diluted 1:20,000 in 1% Casein. Then, the blot was washed 4×5 minutes with PBST and incubated for 1 minute with ECL Western Blotting Substrate (Pierce Biotechnology, Cat#32106). The bands were visualized on the Bio-Rad VersaDoc Imager.
The protein bands were quantified by computing their density which is defined by the ratio between the total intensity of all pixels and the area of the rectangle drawn around each band (intensity/mm^2). The density was calculated by the BioRad software.
The level of protein was quantified using the Bio-Rad VersaDoc Imager according to the protocols of that piece of equipment. A pixel count was performed in each lane using an area of identical size. Each sample was then compared to the appropriate control treated sample and converted to a percent of protein remaining compared to control.
The effects of lead siNAs on STATE protein level were compared to the effects of the universal control using a two tail Student's T-test to obtain a P value. P<0.05 was considered significant.
The siNAs and control were tested were tested at doses of 30 nM, […]. Blots were then probed with a-STAT6 and α-tubulin antibodies. All samples were harvested 72 hours post-transfection. The ratios of the treatments were then compared to the ratio of the control group using an t-test assuming unequal variances.

| Substance | % KD STAT6 [1] [%] | Density (Intensity/mm^2), 3 pM, 72 h [2] [Intensity/mm^2] | Density (Intensity/mm^2), 300 pM, 72 h [2] [Intensity/mm^2] | Density (Intensity/mm^2), 30 nM, 72 h [2] [Intensity/mm^2] |
| --- | --- | --- | --- | --- |
| 29990-DC: STAT6 siNA duplex; sense SEQ ID NO: 44, antisense SEQ ID NO: 45; target GUGAAAGCCUGGUGGACAU, site 954 (sense GUGAAAGCCUGGUGGACAUTT; antisense AUGUCCACCAGGCUUUCACUU; sense: DNA at AGT, 2'-fluoro at CU, [invAb] at 5' end, 3' end, backbone not given here; antisense: sugars from the 5' end rrrfffmffmmmfffffmfmm, backbone not given here) [STAT6 siNA duplex; target GUGAAAGCCUGGUGGACAU, site 954] | 41.6 ± 7.4 | 50078.4 ± 5978.2 | 6192.2 ± 714.5 | 1134.6 ± 362.7 |
| 29997-DC: STAT6 siNA duplex; sense SEQ ID NO: 58, antisense SEQ ID NO: 59; target CUACCAUGGUGCCUUCUUA, site 2262 (sense CUACCAUGGUGCCUUCUUATT; antisense UAAGAAGGCACCAUGGUAGUU; sense: DNA at AGT, 2'-fluoro at CU, [invAb] at 5' end, 3' end, backbone not given here; antisense: sugars from the 5' end rrrmmmmmfmffmfmmfmmmm, backbone not given here) [STAT6 siNA duplex; target CUACCAUGGUGCCUUCUUA, site 2262] | 28.7 ± 6.1 | 49839.8 ± 2352.8 | 5732.4 ± 1189.0 | 3203.8 ± 1309.6 |
| 30008-DC: STAT6 siNA duplex; sense SEQ ID NO: 80, antisense SEQ ID NO: 81; target CUGCUCUGCUCAGAUGUGA, site 2549 (sense CUGCUCUGCUCAGAUGUGATT; antisense UCACAUCUGAGCAGAGCAGUU; sense: DNA at AGT, 2'-fluoro at CU, [invAb] at 5' end, 3' end, backbone not given here; antisense: sugars from the 5' end rrrfmfffmmmfmmmmfmmmm, backbone not given here) [STAT6 siNA duplex; target CUGCUCUGCUCAGAUGUGA, site 2549] | 77.9 ± 7.5 | 58808.1 ± 5023.9 | 8356.8 ± 2186.6 | 4254 ± 1579.4 |
